We go through eight compounds from ChEMBL document CHEMBL3813624, “Discovery of hydroxyl 1,2-diphenylethanamine analogs as potent cholesterol ester transfer protein inhibitors” (Bioorg Med Chem Lett, 2016).

SMILES strings stand for the structures.

In data set [1] the target is T1, Cholesteryl ester transfer protein (Homo sapiens, UniProt P11597).
T1 sequence (P11597 whole entry): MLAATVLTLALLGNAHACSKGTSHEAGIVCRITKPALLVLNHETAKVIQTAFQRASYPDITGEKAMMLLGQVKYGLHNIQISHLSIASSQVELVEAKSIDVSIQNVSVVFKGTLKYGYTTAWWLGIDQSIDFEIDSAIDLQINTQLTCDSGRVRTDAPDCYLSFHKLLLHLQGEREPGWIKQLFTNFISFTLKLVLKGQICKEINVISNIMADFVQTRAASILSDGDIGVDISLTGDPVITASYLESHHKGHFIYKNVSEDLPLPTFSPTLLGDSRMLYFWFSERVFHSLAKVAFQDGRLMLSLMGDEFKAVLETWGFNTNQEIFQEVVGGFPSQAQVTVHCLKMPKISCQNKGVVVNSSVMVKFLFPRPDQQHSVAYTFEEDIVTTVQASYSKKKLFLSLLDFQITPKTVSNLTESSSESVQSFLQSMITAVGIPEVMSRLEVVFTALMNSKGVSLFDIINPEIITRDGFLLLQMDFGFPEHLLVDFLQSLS
The data set can be described thus: Inhibition of human recombinant CETP assessed as reduction in [3H]cholesteryl ester transfer from [3H]CE-HDL to biotinylated LDL by scintillation proximity assay.

The target in data set [2] is T1, Cholesteryl ester transfer protein. Description: Inhibition of CETP in human whole plasma assessed as reduction in [3H]cholesteryl ester transfer from [3H]CE-HDL to LDL/VLDL. It is filed as cell-free.
Data set [3] in a line: Metabolic stability in human liver microsomes assessed as compound remaining at 3 uM after 10 mins by UV absorbance method. The note with it: read-out: Stability. The class given is ADME. On the technique in general: Liver microsomes are a subcellular fraction often used to study metabolism.
The nature of data set [4]: Metabolic stability in mouse liver microsomes assessed as compound remaining at 3 uM after 10 mins by UV absorbance method. It is filed as ADME. The note with it: read-out: Stability.
A short description of data set [5]: Metabolic stability in rat liver microsomes assessed as compound remaining at 3 uM after 10 mins by UV absorbance method. The class given is ADME. The note with it: read-out: Stability.
Another data set relates to Mus musculus. The data set can be described thus: In vivo inhibition of human CETP-mediated [3H]cholesteryl ester transfer in human CETP expressed transgenic mouse coexpressing ApoB-100 at 3 to 10 mg/kg, po measured at 8 hrs post dose relative to control. It is filed as functional.
Data set [6] addresses T2, Voltage-gated inwardly rectifying potassium channel KCNH2 (Homo sapiens, UniProt Q12809). Description: Inhibition of recombinant human ERG expressed in HEK293 cells assessed as inhibition of peak tail current by patch clamp assay. The class given is cell-based.
Data set [7] deals with T2, Voltage-gated inwardly rectifying potassium channel KCNH2. Description: Inhibition of recombinant human ERG flux expressed in HEK293 cells by patch clamp assay. It is filed as cell-based. On the technique in general: Patch clamp records ionic current or voltage across a cell membrane.
A short description of data set [8]: Plasma concentration in dual transgenic mouse expressing human CETP/ApoB-100 at 1 mg/kg, po measured at 2 hrs post dose. The class given is ADME, organism-based.
The nature of data set [9]: Plasma concentration in dual transgenic mouse expressing human CETP/ApoB-100 at 3 mg/kg, po measured at 2 hrs post dose. The class given is ADME, organism-based.
The nature of data set [10]: Plasma concentration in dual transgenic mouse expressing human CETP/ApoB-100 at 10 mg/kg, po measured at 2 hrs post dose. The class given is ADME, organism-based.
The nature of data set [11]: Plasma concentration in dual transgenic mouse expressing human CETP/ApoB-100 at 1 mg/kg, po measured at 4 hrs post dose. It is filed as ADME, organism-based.
A short description of data set [12]: Plasma concentration in dual transgenic mouse expressing human CETP/ApoB-100 at 3 mg/kg, po measured at 4 hrs post dose. It is filed as ADME, organism-based.
Data set [13] can be described thus: Plasma concentration in dual transgenic mouse expressing human CETP/ApoB-100 at 10 mg/kg, po measured at 4 hrs post dose. The class given is ADME, organism-based.
A short description of data set [14]: Plasma concentration in dual transgenic mouse expressing human CETP/ApoB-100 at 1 mg/kg, po measured at 8 hrs post dose. The class given is ADME, organism-based.
A short description of data set [15]: Plasma concentration in dual transgenic mouse expressing human CETP/ApoB-100 at 3 mg/kg, po measured at 8 hrs post dose. It is filed as ADME, organism-based.
A short description of data set [16]: Plasma concentration in dual transgenic mouse expressing human CETP/ApoB-100 at 10 mg/kg, po measured at 8 hrs post dose. The class given is ADME, organism-based.
A short description of data set [17]: AUC (0 to 8 hrs) in dual transgenic mouse plasma expressing human CETP/ApoB-100 at 1 mg/kg, po. It is filed as ADME, organism-based. More on the design: time < 8 hr, dose 1 mg/kg, route oral.
Data set [18] can be described thus: AUC (0 to 8 hrs) in dual transgenic mouse plasma expressing human CETP/ApoB-100 at 3 mg/kg, po. It is filed as ADME, organism-based. The arrangement: dose 3 mg/kg, time < 8 hr, route oral.
Data set [19] is described as follows: AUC (0 to 8 hrs) in dual transgenic mouse plasma expressing human CETP/ApoB-100 at 10 mg/kg, po. The class given is ADME, organism-based. More on the design: time < 8 hr, dose 10 mg/kg, route oral.
A short description of data set [20]: Ratio of plasma concentration in dual transgenic mouse expressing human CETP/ApoB-100 at 10 mg/kg, po measured at 2 hrs post dose to IC50 for CETP in human whole plasma. The class given is ADME, organism-based. The note with it: in vivo.
Data set [21] is described as follows: Ratio of plasma concentration in dual transgenic mouse expressing human CETP/ApoB-100 at 10 mg/kg, po measured at 4 hrs post dose to IC50 for CETP in human whole plasma. The class given is ADME, organism-based. Particulars: in vivo.
The nature of data set [22]: Aqueous solubility of compound. The class given is physicochemical. Particulars: buffer.

T2 sequence (Q12809 whole entry): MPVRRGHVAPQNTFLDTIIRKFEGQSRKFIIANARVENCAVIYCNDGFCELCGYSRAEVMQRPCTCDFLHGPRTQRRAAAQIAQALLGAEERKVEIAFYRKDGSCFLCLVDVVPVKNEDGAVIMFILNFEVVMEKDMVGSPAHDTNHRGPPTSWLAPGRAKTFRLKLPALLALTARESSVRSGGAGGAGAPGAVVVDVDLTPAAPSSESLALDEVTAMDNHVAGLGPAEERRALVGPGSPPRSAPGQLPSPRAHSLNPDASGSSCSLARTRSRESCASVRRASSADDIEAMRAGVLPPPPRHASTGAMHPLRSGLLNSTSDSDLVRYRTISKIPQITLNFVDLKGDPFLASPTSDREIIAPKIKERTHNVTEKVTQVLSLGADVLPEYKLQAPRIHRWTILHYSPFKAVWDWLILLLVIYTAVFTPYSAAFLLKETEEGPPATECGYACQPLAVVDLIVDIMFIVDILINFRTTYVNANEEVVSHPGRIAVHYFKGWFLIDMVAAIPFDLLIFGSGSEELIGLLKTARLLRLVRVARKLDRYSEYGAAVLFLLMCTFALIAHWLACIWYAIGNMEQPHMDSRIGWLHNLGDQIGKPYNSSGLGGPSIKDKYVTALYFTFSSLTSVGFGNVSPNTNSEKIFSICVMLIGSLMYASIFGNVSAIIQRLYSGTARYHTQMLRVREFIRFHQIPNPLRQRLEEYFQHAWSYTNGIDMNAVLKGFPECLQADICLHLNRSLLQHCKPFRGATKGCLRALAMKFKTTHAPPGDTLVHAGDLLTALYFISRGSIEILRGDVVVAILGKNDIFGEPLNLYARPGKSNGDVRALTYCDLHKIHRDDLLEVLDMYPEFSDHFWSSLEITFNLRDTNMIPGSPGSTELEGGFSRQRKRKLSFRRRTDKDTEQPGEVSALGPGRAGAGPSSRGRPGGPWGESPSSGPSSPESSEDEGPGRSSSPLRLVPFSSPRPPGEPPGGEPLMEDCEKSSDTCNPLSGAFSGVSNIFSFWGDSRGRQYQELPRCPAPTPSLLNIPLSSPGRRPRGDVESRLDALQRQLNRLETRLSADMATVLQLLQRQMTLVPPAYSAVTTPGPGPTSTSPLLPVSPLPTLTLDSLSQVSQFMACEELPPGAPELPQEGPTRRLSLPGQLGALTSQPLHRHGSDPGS

As to `CC(C)Oc1cc([C@@](Cc2ccccc2)(NC[C@H](O)CC(F)(F)F)c2cc(F)cc(OC(F)(F)C(F)F)c2)ccc1F`, the IC50 (as a rule, the concentration needed to halve the response being measured) worked out at 1.3 nM in data set [1], 49 nM in [2], 25600 nM in data set [6] and 28000 nM in [7]. The remaining at 10 min, 3 µM in data set [3] was 83%; in data set [4], 85%; in data set [5], 83%. Besides, the “inhibition (INH)” value in the data set on Mus musculus worked out at 50%. Further, the concentration at 2 h in data set [8] stood at 180 nM; in data set [9] it was 380 nM; in data set [10] it was 960 nM. For the same compound, the values for the concentration at 4 h in data set [11], in [12] and in data set [13] were 54 nM, 89 nM and 250 nM, respectively. Besides, the concentration at 8 h in [14] worked out at 28 nM; in data set [15], 45 nM; in data set [16], 92 nM. Further, the area under the curve AUC(0-t) (commonly exposure summed from dosing to a finite time, without extrapolation to infinity) at 8 h in [17] came to 0.543 µM·h; in data set [18] it was 1.04 µM·h; in [19] it was 2.66 µM·h. Further, the figures for the Ratio in data set [20] and in data set [21] were 19 and 5, respectively.

On to `OC(CN[C@@](Cc1ccccc1)(c1cc(F)cc(C(F)(F)F)c1)c1ccc(Cl)cn1)CC(F)(F)F` (some centres undefined), for which the IC50 amounted to 9 nM in [1] and 1200 nM in [2]. Also, the remaining at 10 min, 3 µM in [3] turned out to be 93%; in data set [4], 73%; in data set [5], 69%. Moreover, the solubility (as a rule, the concentration that dissolves in the medium under given conditions) in data set [22] is below 1 µg/mL.

Turning to `CC(=O)O[C@H](CN[C@@](Cc1ccccc1)(c1cc(F)cc(C(F)(F)F)c1)c1ccc(Cl)cn1)C(F)(F)F`, the IC50 in data set [1] stood at 826 nM; in data set [2], 100000 nM. Also, in data set [22], the solubility is below 1 µg/mL.

For `C[C@@H](O)CN[C@@](Cc1ccccc1)(c1cc(F)cc(C(F)(F)F)c1)c1ccc(Cl)cn1`, the IC50 in data set [1] came to 520 nM; in data set [2], 32000 nM. The compound also registered a solubility in data set [22] below 1 µg/mL.

Consider `CC(C)Oc1cc([C@@](Cc2ccccc2)(NC[C@H](O)C(F)(F)F)c2cc(F)cc(OC(F)(F)C(F)F)c2)ccc1F`, for which the IC50 in [1] is 2.9 nM; in [2] it was 238 nM; in data set [7], 12000 nM.

Consider `C[C@H](O)CN[C@@](Cc1ccccc1)(c1cc(F)cc(C(F)(F)F)c1)c1ccc(Cl)cn1`, for which the IC50 worked out at 334 nM in data set [1] and 20000 nM in [2]. In data set [22], this compound returned a solubility below 1 µg/mL.

For the compound `CC(C)Oc1cc([C@@](Cc2ccccc2)(NC[C@@H](O)CC(F)(F)F)c2cc(F)cc(OC(F)(F)C(F)F)c2)ccc1F`, the results for the IC50 in [1], in data set [2] and in data set [7] were 2.5 nM, 169 nM and 23000 nM, respectively.

`O[C@H](CN[C@@](Cc1ccccc1)(c1cc(F)cc(C(F)(F)F)c1)c1ccc(Cl)cn1)C(F)(F)F`: the IC50 came to 22 nM in [1] and 1600 nM in data set [2]. Also, the remaining at 10 min, 3 µM in data set [3] stood at 100%; in data set [4], 95%; in [5] it was 88%. The compound also gave a solubility in [22] below 1 µg/mL.
